# Test results taken from patent US12173276B2 (Alliance for Sustainable Energy, LLC, priority 2021, dated 2024).
# Test system: P. renovo
# Assay: plating assay to determine phosphorus source utilization capacity
# Assay type: cell-based, Picochlorum renovo
# Conditions: wild-type P. renovo, agar plates, 0.313 mM phosphite addition, 5-day outgrowth
# Protocol: FIG. 1 depicts a plating assay to determine phosphorus source utilization capacity in P. renovo.
# Microalgae were cultivated under constant illumination at […] of light, 2% CO2, and constant temperature of 33° C. These conditions were utilized to generate seed cultures for transformation and outgrowth of transformants to generate clonal isolates on agar plates. Media was comprised of a modified f/2 recipe, as described previously. For phosphorus source utilization analyses, agar plates were prepared as described previously, utilizing 8.75 g/L salinity, via dilution of seawater. […] Approximately 4.75×10^8 early log phase cells were plated and incubated under the above conditions; plates were imaged after 5 days of growth.
compound,measurement,value
"O=[PH](O)O [phosphite, Sodium phosphite dibasic pentahydrate]",bleaching compared to control with no added phosphorus source,noticeable bleaching occurred
same,growth with phosphite as the sole phosphorus source,no growth was observed
